The values below come from patent publication US20020102533A1, “Hepatitis C protease exosite for inhibit or design” (priority 2000, published 2002).

Experiment [1] deals with T1, HCV NS3 protease, genotype 1a (Hepatitis C virus genotype 1a, UniProt P26664).
T1 construct: NS3 protease catalytic domain (amino acids 1 to 192); MGAQH expression leader (5 aa), or alternatively the 15 aa His tag […]; made in house; host or cells: E. coli BL21 (DE3)
Put plainly: biochemical. In kind it is biochemical. As to conditions: for (S = P6-P3′) Inhibition(+) / Activation (−): substrate A. The protocol: (§1) Endpoint HPLC based HCV protease assay: HCV protease (5 nM) was incubated in 50 mM Tris pH 7.5, 0.1% maltoside, 5 mM DTT and appropriate amounts of glycerol, NS4A peptide, and substrate. Routine assays were 100 μl in volume containing 15% or 50% glycerol, 5.0 μM NS4A peptide and 5.0 μM substrate. Reactions were run at room temperature (˜22° C.) and quenched by the addition of 4 μl of 10% TFA before 10% of the substrate was consumed. Incubation times were 20 minutes for the ester substrate (Peptide Substrate A) and 80 minutes for the P6-P7′ amide substrate (Peptide Substrate B). […] Incubation times were 90 min. Samples, 50 μl, were injected onto an Hewlett Packard 1090 Liquid Chromatograph containing a Dynamax-60A C18 column. The column was eluted with a linear gradient from 10% acetonitrile to 45% acetonitrile in water. All solvents contained 0.1% TFA. A flow rate of 1 ml/min was used. […] The product peaks were detected by fluorescence excitation at 350 nm and emission at 500 nm.
Continuous fluorescence-based HCV protease assay: This asay was a modified version of method of Taliani (Taliani, M.; et al. Anal. Biochem. 240, 60-67, 1996) using Substrate A (Ac-D-E-D(EDANS)-E-E-Abuψ[COO]-A-S-K(DABCYL)—NH2). Assays were run in a 96-well microtiter plates using a Perkin Elmer Luminescence Spectrometer LS50B exciting at 350 nm (10 nm slit) and emitting at 500 nm (10 nm slit). In a typical assay the protease (1-4 nM) was incubated with 10 μM NS4a peptide in 50 mM Tris pH 7.0, 5.0 mM DTT, 50% glycerol, and […] for 15 min. Catalysis was initiated by the addition of Substrate A (final concentration 5.0 μM). Assays were also run under conditions where 15% glycerol, 0.1% Maltoside were substituted for 50% glycerol and 5% CHAPS. Enzymatic activity was monitored by measuring the increase in fluorescence with time using excitation wavelength of 350 nm and an emission wavelength of 500 nm. Both slit widths were 10 nm. Inhibition constants were determined from a nonlinear least squares fit of the data to the equation Vi/Vo=1/(1+[I]/Kiapp). Where Vi is the velocity measured in the presence of inhibitor (inhibitors were introduced with the NS4a peptide) and Vo is the velocity of controls. The thermodynamic Ki was determined from Kiapparent via the relationship for competitive kinetics: Ki=Kiapp/(1+[S]/Km) where [S] is the substrate concentration.
(§2) Footnote a for Table 1 references the assay condiditions: 1) Substrate A=P6-P3′, HCV protease (4.0 nM) was incubated with various concentrations of truncated analogs of Q9692 in 50 mM Tris buffer, pH 7.0, 15% glycerol, 0.1% maltoside, 5 mM DTT and 10 μM NS4A peptide in a 96-well microtiter plate at room temperature. After 15 minutes catalysis was initiated by the addition of Ac-D-E-D(EDANS)-E-E-Abuψ[COO]-A-S-K(DABCYL)—NH2 (final concentration 5.0 μM in a total reaction volume of 200 μl). Enzymatic activity was monitored by measuring the increase in fluorescence with time on a Perkin Elmer LS50B luminescence spectrometer (excitation 350 nm, emission 500 nm, both slits 10 nm). […] Assays were 100 μl in volume, reactions were run at room temperature (˜22 C) for 80 minutes (<10% of the substrate was consumed). The addition of 4 μl of 10% TFA quenched the reactions. Quantitation of hydrolysis products was determined by measuring fluorescent peak areas following HPLC. Products were detected by excitation at 350 nm and measuring emission at 500 nm. Aliquots (50 μl) of quenched enzymatic reactions were injected on an Hewlett Packard 1090 HPLC equipped with a ¼ inch Dynamex 60A C18 column. A linear gradient from 10% acetonitrile:H2O to 45% acetonitrile:H2O was run over a period of 15 min at a flow rate of 1.0 ml/min. All solvents contained 0.1% TFA.

For experiment [2], the target named is T1, HCV NS3 protease, genotype 1a. Type of experiment: biochemical. Particulars: substrate B. On the procedure:
as §1, §2
Comparison of the effects of Q9692 on the hydrolysis of a P6-P3′ ester substrate (FIG. 2A) and a P6-P7′ substrate (FIG. 2B) and P6-P3′ amide substrate (FIG. 2C) were determined. For substrates A and B1 Concentrations of Q9692 are 0 (circles), 1 μM (squares), 2 μM (diamonds) and 4 μM (triangles). Assay conditions: HCV protease (5 nM) was incubated in 50 mM Tris buffer at pH 7.0, 15% glycerol, 0.1% maltoside, 5 mM DTT, 10 μM NS4A peptide, and specified concentration of substrate. Assays were 100 μl in volume and reactions were run at room temperature (22 C) and quenched by the addition of 4 μl of 10% TFA before 10% of the substrate was consumed. Incubation times were 20 minutes for the ester substrate and 80 minutes for the amide substrate. Hydrolysis products were quantitated by measuring fluorescent peak areas following HPLC and detection by excitation at 350 nm and measuring emission at 500 nm. Aliquots (50 μl) of quenched enzymatic reactions were injected on an Hewlett Packard 1090 HPLC equipped with a ¼ inch Dynamex 60A C18 column.

Experiment [3] deals with HCV protease. As to conditions: cited from earlier work.
Experiment [4] deals with HCV protease (Hepatitis C virus genotype 1b, UniProt P26663). Particulars: corresponding peptides as substrates; 50 mM Hepes pH 7.5, 1% CHAPS, 15% glycerol, NS4a cofactor peptide 80 μM; read-out: Ki; cited from earlier work.
The next experiment concerns the target T2, HCV protease (NS3) (Hepatitis C virus genotype 1a, UniProt P26664).
T2 construct: NS3 protease catalytic domain (amino acids 1 to 192); MGAQH expression leader (5 aa), or alternatively the 15 aa His tag MRGSHHHHHHMGAQH; made in house; host or cells: E. coli BL21 (DE3)
In kind it is binding. Particulars: added to NS3 alone; excitation 280 nm. The protocol: Intrinsic fluorescence studies: Assays were conducted in 0.5 ml fluorescent cuvettes (0.4 ml total volume). […] Fluorescence spectra were obtained by exiting at 280 nm (10 nm slit) and scanning the emission profile from 300 to 400 nm (10 nm slit) at 1 nm s^−1.
Fluorescence spectrum of HCV protease (0.45 μM) in 50 mM Tris buffer, pH 7.0, containing 15% glycerol, and 0.10% maltoside were measured over a range of 300-400 nm using an excitation wavelength of 280 nm. Both excitation and emission slit widths were 10 nm and the scan rate was 1.0 nm sec^−1.

pKd, pKi: −log10 of the molar value. Where a SMILES comes first, the peptide text is derived from it. Where no end group is shown, it is not given here. [ ]: non-standard residue; d: D form. The star is where a group is joined. Dip = N[C@H](C(=O)O)C(c1ccccc1)c1ccccc1; X1 = C=CCC(N*)B1OC2CC3CC(C3(C)C)C2(C)O1; Cha = N[C@@H](CC1CCCCC1)C(=O)O; AlgCF2CF3 = not defined here; Abu = CC[C@H](N)C(=O)O

On to `CC(=O)N[C@@H](CC(=O)O)C(=O)N[C@@H](CCC(=O)O)C(=O)N[C@H](C(=O)N[C@@H](CCC(=O)O)C(=O)N[C@@H](CC1CCCCC1)C(N)=O)C(c1ccccc1)c1ccccc1` [Q228, Ac-Asp-Glu-Dpa-Glu-Cha-NH2] (Ac-DE[Dip]E[Cha]-NH2), for which, in experiment [1], the pKd (as a rule, the negative decadic logarithm of the Kd, by convention in mol/L) is 4.60 and the “(S = P6-P3′) Inhibition(+) / Activation (−)” value was “−”. Besides, in experiment [2], the “(S = P6-P7′) Inhibition (+) / Activation (−)” value is listed as “+”.
Taken in the same sequence, the figures for `CC(=O)N[C@@H](CC(=O)O)C(=O)N[C@@H](CCC(=O)O)C(=O)N[C@H](C(=O)N[C@@H](CCC(=O)O)C(N)=O)C(c1ccccc1)c1ccccc1` [Q229, Ac-Asp-Glu-Dpa-Glu-NH2] (Ac-DE[Dip]E-NH2) were 3.62, “+” and “+”.
For `CC(=O)N[C@@H](CC(=O)O)C(=O)N[C@@H](CCC(=O)O)C(=O)N[C@H](C(N)=O)C(c1ccccc1)c1ccccc1` [Q230, Ac-Asp-Glu-Dpa-NH2] (Ac-Asp-Glu-[Dip]-NH2) the same measures were 3.40, “+” and “+”.
With `CC(=O)N[C@H](C(=O)N[C@@H](CCC(=O)O)C(=O)N[C@@H](CC1CCCCC1)C(N)=O)C(c1ccccc1)c1ccccc1` [Q236, Ac-Dpa-Glu-Cha-NH2] (Ac-[Dip]-Glu-[Cha]-NH2), in experiment [1], the pKd was 4.18 and the “(S = P6-P3′) Inhibition(+) / Activation (−)” value is recorded as “−”. Further, the “(S = P6-P7′) Inhibition (+) / Activation (−)” value in experiment [2] was “−”.
For `CC(=O)N[C@@H](CCC(=O)O)C(=O)N[C@H](C(=O)N[C@@H](CCC(=O)O)C(=O)N[C@@H](CC1CCCCC1)C(N)=O)C(c1ccccc1)c1ccccc1` [Q240, Ac-Glu-Dpa-Glu-Cha-NH2] (Ac-E[Dip]E[Cha]-NH2), in experiment [1], the pKd was 4.10 and the “(S = P6-P3′) Inhibition(+) / Activation (−)” value is recorded as “−”. In addition, in experiment [2], the “(S = P6-P7′) Inhibition (+) / Activation (−)” value is listed as “−”.
Turning to `CC(=O)N[C@@H](CCC(=O)O)C(=O)N[C@@H](CC1CCCCC1)C(=O)N[C@@H](CS)C(=O)O` [Q295, Ac-Glu-Cha-Cys-OH] (Ac-Glu-[Cha]-Cys-OH), in experiment [1], the pKd is 3.52 and the “(S = P6-P3′) Inhibition(+) / Activation (−)” value is “+”. The “(S = P6-P7′) Inhibition (+) / Activation (−)” value in experiment [2] is listed as “+”.
For the compound `CC(=O)N[C@H](C(=O)N[C@@H](CCC(=O)O)C(=O)N[C@@H](CC1CCCCC1)C(=O)N[C@@H](CS)C(=O)O)C(c1ccccc1)c1ccccc1` [Q296, Ac-Dpa-Glu-Cha-Cys-OH] (Ac-[Dip]E[Cha]C-OH), in experiment [1], the pKd is 5.82 and the “(S = P6-P3′) Inhibition(+) / Activation (−)” value is “−”. Besides, the “(S = P6-P7′) Inhibition (+) / Activation (−)” value in experiment [2] is given as “−”.
In the case of `CC(=O)N[C@@H](CCC(=O)O)C(=O)N[C@H](C(=O)N[C@@H](CCC(=O)O)C(=O)N[C@@H](CC1CCCCC1)C(=O)N[C@@H](CS)C(=O)O)C(c1ccccc1)c1ccccc1` [Q297, Ac-Glu-Dpa-Glu-Cha-Cys-OH] (Ac-E[Dip]E[Cha]C-OH), in experiment [1], the pKd is 4.40 and the “(S = P6-P3′) Inhibition(+) / Activation (−)” value was “−”. Further, the “(S = P6-P7′) Inhibition (+) / Activation (−)” value in experiment [2] is “+”.
Take `C=CCC(NC(=O)[C@H](CC1CCCCC1)NC(=O)[C@H](CCC(=O)O)NC(=O)[C@@H](NC(=O)[C@H](CCC(=O)O)NC(=O)[C@H](CC(=O)O)NC(C)=O)C(c1ccccc1)c1ccccc1)B1OC2CC3CC(C3(C)C)C2(C)O1` (stereo partly drawn) [Q9716, Ac-Asp-Glu-Dpa-Glu-Cha-boroAlg—C10H16] (Ac-DE[Dip]E[Cha]-X1): in experiment [1], the pKi – broadly, the Ki on a negative log10 scale, so that one unit is a factor of ten – was about 8.30.
With Ac-Asp-(D)Glu-Chg-Val-X-Nva—OH, the pKi on HCV protease [3] is 7.55.
As for Ac-EDVW[Abu]C-OH, the pKi on HCV protease [4] was 5.85.
Regarding “Asp-Glu-Val-Val-Pro-AlgCF2CF3 (DEVVP-AlgCF2CF3; reading uncertain; also: printed as Asp-Glu-Val-Val-Pro-AlgCF2CF3) [Q9714]”, the “Dixon plots of 1/V versus Q9717 concentration” value in experiment [1] (5 μM substrate spanning P6-P3′) was “parallel lines”.
For DCSTPC [Ac-DCSTPC—OH], the pKi at HCV protease [4] was 3.74.
On to DEMEEC [Ac-DEMEEC—OH], for which the pKi at HCV protease [4] is 6.22.
Take KKGSVVIVGRIVLSGKPAIIPKK [NS4a]: in the experiment with HCV protease (NS3), the “increase in intrinsic fluorescence of the protease (NS3)” value came out at 25%.
